Assays:
[1] = test system: CFTR channel activity; experiment: Transepithelial short-circuit current and conductance in HAE; type: cell-based, human; conditions: control epithelia with or without PAF, or PAF and NC1 treated cells; sequential addition of agents
[2] = test system: Human HPRT mRNA; experiment: HPRT mRNA silencing by DsiRNA-Transductin in well-differentiated HAE (RT-qPCR); type: cell-based
Protocol: FIG. 1. […] (a) Well-differentiated HAE cultures grown at the ALI were incubated in adding HPRT-targeting or control NC1 DsiRNA (250 nM) formulated with Transductin containing 0.1 or 0.01 mg LOS (HPRT-targeting DsiRNAs) or 0.1 mg LOS (NC1 DsiRNA). After 4 hours, the apical surface was rinsed and 24 hours later, target RNA levels quantified by RT-qPCR. All mRNA levels were normalized to NC1-treated samples. Mean levels were calculated from three biological replicates, each done in triplicate. ***p<0.001, **p<0.01 (Student's t-test). […] Samples were normalized to NC1-treated cells. ***p<0.001, **p<0.01 (Student's t-test). […] PAFRa was present throughout transfection in cells pre-treated with the reagent. Cells were harvested and RNA quantified 24 hrs later. Samples were normalized to NC1-treated cells. **p<0.01 (Student's t-test).
FIG. 3. Spiperone improves RNAi responses in DsiRNA transduced cells. HAE were pre-treated with various small molecules at the concentration indicated. The drugs were added to the apical surface and the basolateral media for 6 hours. Both surfaces were then washed and HPRT or NC1 DsiRNA formulated with Transductin added to the apical surface. The cells were washed after 4 hours, and RT-qPCR done on cell lysates harvested 24 hours later.
Human airway epithelial cells were obtained from trachea and bronchi of lungs removed for organ donation from non-CF individuals. Cells were isolated by enzyme digestion as previously described. Following enzymatic dispersion, cells were seeded at a density of 5×10^5 cells/cm^2 onto collagen-coated, 0.6 cm^2 semi permeable membrane filters (Millipore polycarbonate filters; Millipore Corp., Bedford, Mass.). The cells were maintained at 37° C. in a humidified atmosphere of 5% CO2 air. Twenty-four hours after plating, the apical media was removed and the cells were maintained at an air-liquid interface (ALI) to allow differentiation of the epithelium. The culture medium consisted of 1:1 ratio mix of Dulbecco's modified Eagle's medium (DMEM)/Ham's F12, 5% Ultroser G (Biosepra S A, Cedex, France), 100 U/ml penicillin, 100 μg/ml streptomycin, 1% nonessential amino acids and 0.12 U/ml insulin. Studies were performed on well-differentiated epithelia approximately 4 to 6 weeks after initiation of the ALI cultures conditions. HEp-2 cells were maintained in MEM substituted with 10% fetal bovine serum and 100 U/ml penicillin.
PAF was purchased from Sigma-Aldrich. The reagent was reconstituted in ethanol and used in the experiment at a concentration of 200 nM or as described in the figures. PAF was added to the transfection mixture at the apical surface as well as to the basolateral media. PAFRa (WEB 2086) was purchased from Sigma-Aldrich. […] The reagent was incubated with the cells throughout the transfection period.
All the small molecules tested were purchased from Sigma-Aldrich. The chemicals were reconstituted in appropriate solutions as recommended by the manufacturer. The epithelia were pre-treated with drugs for 6 hours at concentrations used in the CMAP study or noted in the published literature. Following drug treatment, the epithelia were transduced with DsiRNA as described above.
For well-differentiated airway epithelia, transfection was performed mostly according to the manufacturer's protocol. In all cases, the apical surface of epithelia was rinsed twice with PBS before adding the transfection mixture to the apical surface. DsiRNAs were used at a concentration of 250 nM. The mixture was left on the cells for 4 hours after which the medium was removed, the apical surface rinsed with PBS and the cells incubated further for 24 hours. For all experiments, a minimum of 3 biological replicates, in triplicate, were done.
Total RNA was isolated using SV96 RNA isolation kit (Promega, Madison, Wis.), according to manufacturer's protocol. […]

[3] = test system: Human CFTR mRNA; experiment: CFTR mRNA silencing by CFTR DsiRNA-Transductin in well-differentiated HAE (RT-qPCR); type: cell-based; conditions: CFTR DsiRNA with simultaneous PAF treatment or spiperone pre-treatment
Protocol: (§1) FIG. 4. […] Alternatively, spiperone was applied apically and basolaterally to well-differentiated HAE for 6 hours, and then removed by rinsing before incubation for 4 hours with CFTR-targeting or NC1 DsiRNAs complexed with Transductin. In both cases, 24 hours after transfection, and RNA levels quantified by RT-qPCR. (b) A representative immunoblot from similarly treated wells, but cells were lysed and proteins visualized after immunoprecipitation with anti-CFTR antibody. Alpha-tubulin was used as a loading control. (c) Densitometry readings of immunoblots with results normalized to NC1 treated samples. In all cases, data are from 3 biological replicates and are mean±SD. ***p<0.001, **p<0.01 (Student's t-test).
For well-differentiated airway epithelia, transfection was performed mostly according to the manufacturer's protocol. […]
Total RNA was isolated using SV96 RNA isolation kit (Promega, Madison, Wis.), according to manufacturer's protocol. […] One-fifteenth of the cDNA was then amplified and analyzed by using the 5′-nuclease assay in a 7900 Real Time PCR System (Applied Biosystems, Foster city, CA) using primer-probe pairs reaction buffer and Immolase DNA polymerase (Bioline, Taunton, Mass.). […] Absolute quantification of an mRNA target sequence within an unknown sample was determined by reference to a standard curve. […]

[4] = test system: CFTR protein; experiment: CFTR protein levels, immunoprecipitation and immunoblot with densitometry in HAE; type: cell-based, human
Protocol: as §1
HAE were rinsed with PBS and lysed in RIPA buffer (1% NP-40, 0.5% sodium deoxycholate, 0.1% SDS, 50 mM Tris, protease inhibitors [complete; mini, EDTA-free; Roche Biochemicals, Indianapolis, Ind.]) for 30 minutes at 4° C. The lysate were centrifuged in a table top centrifuge at 14,000 rpm for 20 minutes at 4° C. The supernatant was quantified by BCA protein assay kit (Pierce, Rockford, Ill.). Thirty micrograms of protein per lane was separated on a 10% Tris-HCL Criterion precast gel (Bio-Rad, Hercules, Calif.) for western blot analysis. The protein was transferred to Polyvinylidene difluoride membrane and then was probed with goat anti-RSV antibody purchased from Meridian Life Sciences (Memphis, Tenn.). The membrane was imaged, and then stripped with Restore Western Blot Stripping Buffer (Thermo Scientific, Lafayette, Colo.) for 15 minutes. The membrane was rinsed with Tris-buffered saline-Tween (TBS-T) and blocked in 5% bovine serum albumin (Research Products International Corp, Mt. Prospect, Ill.). The membrane was then reprobed with α-tubulin (Sigma-Aldrich).

[5] = reference [38]; cited from earlier work
[6] = test system: Human HPRT mRNA; conditions: Transductin alone or combined with enhancers of macropinocytosis; reference [17]; cited from earlier work

O=C(CNc1ccc2ccccc2c1)N/N=C/c1cc(Br)c(O)c(Br)c1O [GlyH-101]
cAMP-activated transepithelial short-circuit current (Isc and ΔIsc) and conductance (Gt) [1]: decreased both values

O=C(CCCN1CCC2(CC1)C(=O)NCN2c1ccccc1)c1ccc(F)cc1 [Spiperone]
spiperone dose-response on silencing ([2]; increasing doses, 6 hours pretreatment (FIG. 9)): marginal increases in silencing with increasing doses | silencing of HPRT mRNA levels ([2]; spiperone 10 μM pretreatment before DsiRNA transduction): 25% | silencing of CFTR mRNA levels [3]: approximately 30% | CFTR protein levels compared to controls ([4]; PAF or spiperone and CFTR DsiRNA-Transductin, immunoprecipitation, western blot): reduced CFTR protein levels | fully glycosylated CFTR band C ([4]; densitometry, normalized to NC1 treated samples): significantly decreased

Cc1nnc2n1-c1sc(CCC(=O)N3CCOCC3)cc1C(c1ccccc1Cl)=NC2 [WEB2086]
inhibition of HPRT silencing in cells transduced with LOS or PAF ([2]; 1 μM PAFRa): partially inhibited | inhibition of HPRT silencing of LOS- or PAF-assisted transduction ([2]; 100 μM PAFRa, pre- or post-treatment): completely inhibited

CC(C)Cn1c(=O)n(C)c(=O)c2[nH]cnc21 [isobutylmethylxantine (IBMX), isobutylmethylxantine]
cAMP-activated transepithelial short-circuit current (Isc and ΔIsc) and conductance (Gt) [1]: increased

CCCCCCCCCCCCCC(=O)O[C@@H]1[C@@H](C)[C@@]2(O)[C@@H](C=C(CO)C[C@]3(O)C(=O)C(C)=C[C@@H]23)[C@@H]2C(C)(C)[C@]12OC(C)=O [phorbol ester]
gene silencing in well differentiated HAE with Transductin-DsiRNA plus phorbol ester ([2]; applicant's unpublished data): better silencing | toxicity [5]: toxic and unsuitable for repeated applications or use in vivo

epidermal growth factor (NSDSECPLSHDGYCLHDGVCMYIEALDKYACNCVVGYIGERCQYRDLKWWELR; Epidermal growth factor; UniProt P01133 971-1023, looked up) [EGF, enhancer of macropinocytosis]
gene silencing in well differentiated HAE with Transductin-DsiRNA, previously observed [6]: very modest knockdown

— patent US9987299B2, “Methods of improving RNAi in well-differentiated airway epithelia” (University of Iowa Research Foundation, priority 2014, dated 2018)
